Measured values as given in publication PMC5802278, “Molecular and cellular mechanisms of HIF prolyl hydroxylase inhibitors in clinical trials” (Chemical Science, 2017).
Like-named read-outs stand apart in the source and are kept apart here.

Key:
[1] = system: hypoxia response element (HRE) firefly luciferase reporter in HT1080 cells; assay: HRE luciferase reporter assay; format: cell-based; conditions: for EC50: Homo sapiens
Procedure: HT1080 cells were stably transfected with a construct containing a firefly luciferase gene under the control of 5 tandem copies of the sequence: […] (which contains the hypoxia response element (HRE) 3′ to the mouse erythropoietin gene) linked to a ‘minimal’ SV40 promoter.
HT1080P8 cells (25 000–30 000) were seeded into 96-well plates (100 μL per well) overnight to enable cell adhesion. […] The medium was removed and cells washed with PBS. Luciferase signal was measured using Luciferase Assay System kit from Promega (E1500) following the manufacturer's protocol with a FLUOstar Omega Microplate Reader (BMG Labtech).

JMJD3 (KDM6B) = JMJD3 (KDM6B) (Homo sapiens, UniProt O15054); assay: AlphaScreen histone demethylase assay; format: biochemical
Sequence of JMJD3 (KDM6B) (O15054 whole entry): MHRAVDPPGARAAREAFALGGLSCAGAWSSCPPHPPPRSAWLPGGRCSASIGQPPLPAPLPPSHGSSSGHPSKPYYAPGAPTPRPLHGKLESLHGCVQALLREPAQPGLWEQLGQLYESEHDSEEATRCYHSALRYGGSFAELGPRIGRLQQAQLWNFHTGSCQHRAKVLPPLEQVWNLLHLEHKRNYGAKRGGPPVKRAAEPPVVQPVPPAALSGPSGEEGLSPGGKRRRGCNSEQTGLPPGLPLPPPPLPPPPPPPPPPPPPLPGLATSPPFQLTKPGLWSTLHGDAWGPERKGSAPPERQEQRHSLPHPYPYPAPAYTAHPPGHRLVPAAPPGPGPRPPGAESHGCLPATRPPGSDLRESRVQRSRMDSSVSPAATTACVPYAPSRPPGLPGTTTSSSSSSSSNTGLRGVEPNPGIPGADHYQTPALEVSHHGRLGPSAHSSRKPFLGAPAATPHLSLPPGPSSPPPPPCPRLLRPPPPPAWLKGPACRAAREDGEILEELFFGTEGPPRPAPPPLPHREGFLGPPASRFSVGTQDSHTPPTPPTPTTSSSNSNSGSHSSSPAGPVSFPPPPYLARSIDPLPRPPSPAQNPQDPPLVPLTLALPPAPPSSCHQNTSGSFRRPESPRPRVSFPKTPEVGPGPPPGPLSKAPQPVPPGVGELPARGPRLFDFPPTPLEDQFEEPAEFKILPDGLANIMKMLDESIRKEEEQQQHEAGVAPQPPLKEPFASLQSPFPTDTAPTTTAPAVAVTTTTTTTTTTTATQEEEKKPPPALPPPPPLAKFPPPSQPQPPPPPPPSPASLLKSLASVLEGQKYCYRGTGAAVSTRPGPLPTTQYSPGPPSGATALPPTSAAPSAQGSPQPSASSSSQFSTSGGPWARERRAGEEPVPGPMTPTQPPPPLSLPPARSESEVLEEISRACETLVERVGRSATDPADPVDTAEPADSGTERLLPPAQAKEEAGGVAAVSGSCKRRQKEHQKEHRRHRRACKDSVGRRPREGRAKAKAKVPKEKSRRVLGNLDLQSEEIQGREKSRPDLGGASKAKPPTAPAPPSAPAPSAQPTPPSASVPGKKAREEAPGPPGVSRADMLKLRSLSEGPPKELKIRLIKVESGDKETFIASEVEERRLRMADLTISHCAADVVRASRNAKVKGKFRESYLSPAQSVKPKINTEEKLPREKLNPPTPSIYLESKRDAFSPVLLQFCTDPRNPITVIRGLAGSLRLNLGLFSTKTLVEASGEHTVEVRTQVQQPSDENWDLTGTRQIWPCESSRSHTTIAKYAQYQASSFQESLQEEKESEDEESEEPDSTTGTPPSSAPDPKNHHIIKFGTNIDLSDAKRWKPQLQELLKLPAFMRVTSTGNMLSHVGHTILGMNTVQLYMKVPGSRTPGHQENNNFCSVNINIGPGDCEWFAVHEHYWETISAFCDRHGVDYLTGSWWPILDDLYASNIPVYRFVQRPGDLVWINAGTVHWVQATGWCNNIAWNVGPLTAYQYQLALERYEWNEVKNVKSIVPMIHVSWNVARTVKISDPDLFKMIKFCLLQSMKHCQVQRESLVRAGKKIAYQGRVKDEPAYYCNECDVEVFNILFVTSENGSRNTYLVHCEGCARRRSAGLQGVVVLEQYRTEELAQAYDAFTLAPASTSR
Excerpt: Protocols for in vitro PHD1–3 MALDI-TOF MS hydroxylation assays[30] and for the AlphaScreen histone demethylase assays[44] were as reported.

[2] = biological target: PHD2 catalytic domain (residues 181-426) (Homo sapiens, UniProt Q9GZT9); assay: NMR competition assays (2OG, CODD, NODD displacement); format: binding; set-up: The catalytic domain of human PHD2 (residues 181-426) was used in all; made in house; conditions: for 2OG displacement: inhibitor at 400 μM, PHD2 at 10 μM, 1H CPMG
Sequence of PHD2 catalytic domain (residues 181-426) (Q9GZT9 181-426): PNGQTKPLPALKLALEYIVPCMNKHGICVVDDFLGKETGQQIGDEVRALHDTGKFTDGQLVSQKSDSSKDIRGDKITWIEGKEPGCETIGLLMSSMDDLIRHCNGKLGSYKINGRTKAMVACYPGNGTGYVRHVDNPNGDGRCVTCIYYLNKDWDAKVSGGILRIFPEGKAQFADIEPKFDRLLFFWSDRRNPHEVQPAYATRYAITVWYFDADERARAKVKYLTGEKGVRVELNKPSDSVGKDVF
Procedure: 2OG displacement experiments were monitored by CPMG-edited 1H NMR using a Bruker […]
supplemented with 60 µM Zn(II) and increasing concentrations of the inhibitors from a […]
(90°x−[τ−180°y−τ−90°y−τ−180°y−τ]n−acq), was applied. Typical experimental parameters were […]
suppression was achieved by presaturation.
For 13C-CODD and […] displacement experiments, 1D Clean In-Phase (CLIP) HSQC with selective 13C-inversion displacement experiments were conducted using a Bruker AV700 instrument. 3 mm MATCH NMR tubes were used (Cortecnet). All experiments were […]
prolyl-ring. 7 The CLIP-HSQC sequence was used for 1D HSQC experiments (without 13C decoupling).8 Relaxation delay was 2s. The 1JCH was set to 160 Hz. A 6.8 ms Q3.1000 180 degree pulse was used and selective irradiation was applied at the selected chemical shift. […]

JARID1D (KDM5D) = JARID1D (KDM5D) (Homo sapiens, UniProt Q9BY66); assay: AlphaScreen histone demethylase assay; format: biochemical
Sequence of JARID1D (KDM5D) (Q9BY66 whole entry): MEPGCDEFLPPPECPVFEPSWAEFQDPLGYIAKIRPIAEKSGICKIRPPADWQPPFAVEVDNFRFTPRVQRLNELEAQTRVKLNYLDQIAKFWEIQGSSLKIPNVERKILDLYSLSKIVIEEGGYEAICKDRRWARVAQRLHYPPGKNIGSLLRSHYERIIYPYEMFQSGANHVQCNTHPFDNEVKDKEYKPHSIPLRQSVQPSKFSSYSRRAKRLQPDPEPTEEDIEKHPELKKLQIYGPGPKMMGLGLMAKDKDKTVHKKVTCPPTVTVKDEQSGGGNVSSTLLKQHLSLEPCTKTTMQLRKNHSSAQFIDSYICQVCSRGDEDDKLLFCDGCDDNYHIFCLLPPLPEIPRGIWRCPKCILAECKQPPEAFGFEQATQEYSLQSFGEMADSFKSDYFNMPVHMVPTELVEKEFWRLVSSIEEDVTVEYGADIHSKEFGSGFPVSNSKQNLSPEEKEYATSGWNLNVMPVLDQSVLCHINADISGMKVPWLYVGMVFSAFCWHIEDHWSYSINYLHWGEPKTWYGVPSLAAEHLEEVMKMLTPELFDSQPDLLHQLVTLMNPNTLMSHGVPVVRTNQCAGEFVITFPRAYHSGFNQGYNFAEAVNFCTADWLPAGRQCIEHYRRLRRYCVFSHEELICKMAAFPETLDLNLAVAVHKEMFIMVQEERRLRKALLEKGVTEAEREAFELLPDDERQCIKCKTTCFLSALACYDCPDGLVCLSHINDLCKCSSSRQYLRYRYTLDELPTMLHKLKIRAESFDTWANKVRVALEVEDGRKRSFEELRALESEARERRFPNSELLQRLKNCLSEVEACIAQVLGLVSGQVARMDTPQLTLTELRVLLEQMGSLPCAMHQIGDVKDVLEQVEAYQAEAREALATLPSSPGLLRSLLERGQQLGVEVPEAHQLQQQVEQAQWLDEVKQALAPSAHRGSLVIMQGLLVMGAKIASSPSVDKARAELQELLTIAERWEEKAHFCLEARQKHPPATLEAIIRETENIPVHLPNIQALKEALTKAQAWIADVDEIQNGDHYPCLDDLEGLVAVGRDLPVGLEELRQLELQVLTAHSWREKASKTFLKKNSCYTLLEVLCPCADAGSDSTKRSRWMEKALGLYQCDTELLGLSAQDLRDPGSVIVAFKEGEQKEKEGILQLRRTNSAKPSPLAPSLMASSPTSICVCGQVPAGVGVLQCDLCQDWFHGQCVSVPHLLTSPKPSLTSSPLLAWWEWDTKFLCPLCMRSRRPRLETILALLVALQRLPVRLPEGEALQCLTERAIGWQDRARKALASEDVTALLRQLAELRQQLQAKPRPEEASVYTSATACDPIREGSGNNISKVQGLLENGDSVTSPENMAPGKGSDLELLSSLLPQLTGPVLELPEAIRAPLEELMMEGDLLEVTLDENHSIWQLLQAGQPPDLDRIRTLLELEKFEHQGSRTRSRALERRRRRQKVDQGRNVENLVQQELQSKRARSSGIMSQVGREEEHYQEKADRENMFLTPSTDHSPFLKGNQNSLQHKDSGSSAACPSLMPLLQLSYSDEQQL

[3] = system: HIF-1α in HeLa and U2OS cells, HIF-1α and HIF-2α in Hep3b cells; assay: Immunoblotting of HIF-α stabilization, dose titration; format: cell-based, human; conditions: 6 hours treatment, all of the cells tested
Procedure: The cellular HIF-α stabilization was further studied using immunoblotting. […]. page 15: […]
freshly every day as a 400 mM stock solution in 20 mM HCl, this was then diluted to 1 mM in deionized water. L-ascorbic acid (50 mM) and 2OG stock solutions (10 mM) were prepared freshly every day in deionized water as for the PHD2 assays14 . The synthetic consensus ankyrin […]
peptide ([…]-CONH2) was synthesized by GL Biochem
(Shanghai) Ltd and dissolved to 1 mM in deionized water.
20 μl FIH (100 nM) in the assay buffer (50 mM Tris.Cl pH 7.8, 50 mM NaCl) was pre-incubated for 15 minutes in the presence of the inhibitors and the enzyme reaction initiated by addition of 20 μl substrate (200 μM L-ascorbic acid, 20 μM Fe2+, 10 μM synthetic ankyrin peptide 14 and 20 μM 2OG). After 15 minutes the reaction was quenched by addition of 4 μl 10% formic acid and the reaction transferred to a RapidFire RF360 high throughput sampling robot. Samples were aspirated under vacuum onto a C4 Solid Phase Extraction (SPE) cartridge.
After an aqueous washing step (0.1% formic acid in water), to remove non-volatile buffer components from the C4 SPE, peptide was eluted in an organic washing step (85% acetonitrile in water, 0.1% formic acid) and injected into an Agilent 6530 Q-TOF mass spectrometer. Ion chromatogram data was extracted for the non-hydroxylated peptide substrate and the hydroxylated peptide product; the peak area data for extracted ion chromatograms were integrated using RapidFire Integrator software. % conversion of substrate to product was calculated in Microsoft excel and IC50 curves generated using Graphpad Prism.
Cell Culture and Immunoblotting […]
Cells were harvested in urea/SDS buffer (6.7 M urea, 10 mM Tris-Cl pH 6.8, 10% glycerol, and1% SDS) supplemented with 1mM dithiothreitol following a phosphate-buffered saline (PBS) rinse. Cell extracts were analyzed with SDS-PAGE, electroblotted to polyvinylidene difluoride (PVDF) membrane (Millipore) and probed with the corresponding primary antibody for 1 hour at room temperature or overnight at 4 °C. […]

[4] = 1D-selective HSQC with selective 13C inversion
[5] = HT-1080, 16 h, read-out: EC50 HRE luciferase reporter

Row | SMILES | EC50 ([1]; HT-1080, 6 h, read-out: EC50 HRE luciferase reporter, HT1080 cells, 6 hours treatment) | EC50 ([1]; HT-1080, 16 h, read-out: EC50 HRE luciferase reporter, HT1080 cells, 16 hours treatment) | EC50 ([1]; HT-1080, 24 h, read-out: EC50 HRE luciferase reporter, HT1080 cells, 24 hours treatment) | IC50 (JMJD3 (KDM6B); read-out: IC50 JMJD3 (KDM6B)) | 13C-CODD displacement [2, 4] | 13C-NODD displacement [2, 4] | 2OG displacement [2] | IC50 (JARID1D (KDM5D); read-out: IC50 JARID1D (KDM5D)) | concentration at which HIF-1α levels (and HIF-2α levels in Hep3b cells) were saturated [3] | EC50 ([1]; HT-1080, 6 h, read-out: EC50 HRE luciferase reporter) | EC50 [1, 5] | EC50 ([1]; HT-1080, 24 h, read-out: EC50 HRE luciferase reporter) | concentrations at which the luciferase signals were reduced ([1]; HT1080 cells, 16 hours) | EC50 ([1]; HT-1080, HT1080 cells, 16 hours treatment, read-out: EC50 HRE luciferase reporter) | Emax in HRE luciferase reporter assay ([1]; HT1080 cells, 16 hours) | IC50 (JMJD3 (KDM6B)) | IC50 (JARID1D (KDM5D))
1 | Cc1nc(C(=O)NCC(=O)O)c(O)c2ccc(Oc3ccccc3)cc12 [FG-4592] | 3 µM | 7 µM | 7 µM | > 100 µM | efficiently displaced CODD | clearly displaced NODD | completely displaced 2OG | > 100 µM | < 100 µM | – | – | – | – | – | – | – | –
2 | O=C(O)CNC(=O)c1ncc(-c2cccc(Cl)c2)cc1O [Vadadustat] | – | – | – | 37 µM | – | clearly displaced NODD | completely displaced 2OG | > 100 µM | – | 15.7 µM | 41 µM | 37 µM | – | – | – | – | –
3 | O=c1c(-n2ccnn2)c[nH]n1-c1cc(N2CCOCC2)ncn1 [Molidustat] | – | – | – | 35 µM | – | barely detectable | completely displaced 2OG | > 100 µM | < 100 µM | – | – | – | > 33 µM | 2.1 µM | – | – | –
4 | O=C(O)CNC(=O)C1C(=O)N(C2CCCCC2)C(=O)N(C2CCCCC2)C1=O [GSK1278863] | – | – | – | – | – | – | – | – | < 100 µM | – | 0.8 µM | – | > 33 µM | – | lowest observed Emax | > 100 µM | > 100 µM
5 | CC(C)(C)OC(=O)c1ccc(-n2[nH]cc(-n3ccnn3)c2=O)nc1 [IOX4] | – | – | – | < 1 µM | – | clearly displaced NODD | completely displaced 2OG | 91 µM | – | – | 0.8 µM | – | > 33 µM | – | – | – | –
